Target: T1, Human CCR3 (Homo sapiens, UniProt P51677)
T1 construct: The cloned CCR3 cDNA was constructed with pcDNA3 vector and transfected into a IC562 cell line; expressed in transfected cells
T1 sequence (P51677 1-355): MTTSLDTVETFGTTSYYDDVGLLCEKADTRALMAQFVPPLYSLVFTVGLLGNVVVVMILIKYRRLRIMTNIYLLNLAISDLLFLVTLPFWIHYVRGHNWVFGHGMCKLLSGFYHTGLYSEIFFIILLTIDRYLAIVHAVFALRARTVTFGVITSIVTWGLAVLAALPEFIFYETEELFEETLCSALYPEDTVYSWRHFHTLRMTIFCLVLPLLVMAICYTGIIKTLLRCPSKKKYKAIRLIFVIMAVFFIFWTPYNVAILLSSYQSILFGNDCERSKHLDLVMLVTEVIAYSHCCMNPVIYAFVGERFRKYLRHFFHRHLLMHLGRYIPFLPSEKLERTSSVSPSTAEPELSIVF
Experiment: Receptor binding assay (RBA), [125I]-eotaxin
Conditions: human CCR3-transformed K562 cells, 0.1 nM [125I]-eotaxin; compounds of about 40 to 90% purity; read-out: Activity grade RBA (IC50 class)
How it was run: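 Butyrate-pretreated (5 mM, 20-24 h) CCR3-transfected K562 cells incubated 1 h at room temperature with compound and 0.1 nM final [125I]-eotaxin in HEPES pH 7.6 buffer; bound radioactivity counted after filtration. Non-specific binding with 500 nM unlabeled eotaxin; IC50 from inhibition curve.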

IC50 [µM]	SMILES
< 1	O=[N+]([O-])c1ccc(Sc2cc(Cl)cc(Cl)c2)c(S(=O)(=O)N2CCC(N3CCCCC3)CC2)c1 [Example 2-3]
< 1	Cl.N[C@@H]1CCN(S(=O)(=O)c2cc([N+](=O)[O-])ccc2Sc2cc(Cl)cc(Cl)c2)C1 [Example 2-11]
< 1	N[C@H]1CCN(S(=O)(=O)c2cc([N+](=O)[O-])ccc2Sc2cc(Cl)cc(Cl)c2)C1 [Example 2-12]
< 1	CC1CCCCN1CCCNS(=O)(=O)c1cc([N+](=O)[O-])ccc1Sc1cc(Cl)cc(Cl)c1 (stereo not shown) [Example 2-13]
< 1	O=[N+]([O-])c1ccc(Sc2cc(Cl)cc(Cl)c2)c(S(=O)(=O)N2CCC(N3CCCC3)CC2)c1 [Example 2-22]
< 1	CN(C)CCN(C)S(=O)(=O)c1cc([N+](=O)[O-])ccc1Sc1cc(Cl)cc(Cl)c1 [Example 2-23]
< 1	O=[N+]([O-])c1ccc(Sc2cc(Cl)cc(Cl)c2)c(S(=O)(=O)NCCN2CCCCC2)c1 [Example 2-24]
< 1	O=[N+]([O-])c1ccc(Nc2cc(Cl)cc(Cl)c2)c(S(=O)(=O)N2CCNCC2)c1 [Example 3-2]
1 to 10	Cc1ccccc1Nc1ccc([N+](=O)[O-])cc1S(=O)(=O)N1CCNCC1 [Example 3-3]
1 to 10	Cc1cccc(Nc2ccc([N+](=O)[O-])cc2S(=O)(=O)N2CCNCC2)c1 [Example 3-4]
> 10	Cc1ccc(Nc2ccc([N+](=O)[O-])cc2S(=O)(=O)N2CCNCC2)cc1 [Example 3-5]
> 10	O=[N+]([O-])c1ccc(Nc2ccccc2Cl)c(S(=O)(=O)N2CCNCC2)c1 [Example 3-6]
< 1	Cc1cc(C)cc(Oc2ccc([N+](=O)[O-])cc2S(=O)(=O)NCCN2CCCCC2)c1 [Example 4-2]
1 to 10	Cc1cc(C)cc(Oc2ccc([N+](=O)[O-])cc2S(=O)(=O)NCCN2CCOCC2)c1 [Example 4-3]
< 1	Cc1cc(C)cc(Oc2ccc([N+](=O)[O-])cc2S(=O)(=O)N2CCN(C)CC2)c1 [Example 4-4]
< 1	CCN1CCN(S(=O)(=O)c2cc([N+](=O)[O-])ccc2Oc2cc(C)cc(C)c2)CC1 [Example 4-5]
< 1	Cc1cc(C)cc(Oc2ccc([N+](=O)[O-])cc2S(=O)(=O)N2CCN(C3CCCCC3)CC2)c1 [Example 4-6]
> 10	Cc1cc(C)cc(Oc2ccc([N+](=O)[O-])cc2S(=O)(=O)N2CCN(c3ccccc3)CC2)c1 [Example 4-7]
> 10	Cc1ccc(N2CCN(S(=O)(=O)c3cc([N+](=O)[O-])ccc3Oc3cc(C)cc(C)c3)CC2)cc1 [Example 4-8]
< 1	CCN1CCC(N(CC)S(=O)(=O)c2cc([N+](=O)[O-])ccc2Oc2cc(C)cc(C)c2)C1 (stereo not shown) [Example 4-12]

IC50 [µM]	SMILES
< 1	Cc1cc(C)cc(Oc2ccc([N+](=O)[O-])cc2S(=O)(=O)N2CC[C@@H](N(C)C)C2)c1 [Example 4-13]
< 1	Cc1cc(C)cc(Oc2ccc([N+](=O)[O-])cc2S(=O)(=O)N(C)CCN(C)C)c1 [Example 4-14]
< 1	Cc1cc(C)cc(Oc2ccc([N+](=O)[O-])cc2S(=O)(=O)N2CCN(C(C)C)CC2)c1 [Example 4-15]
< 1	CCC(C)N1CCN(S(=O)(=O)c2cc([N+](=O)[O-])ccc2Oc2cc(C)cc(C)c2)CC1 (stereo not shown) [Example 4-16]
< 1	CCCC(C)N1CCN(S(=O)(=O)c2cc([N+](=O)[O-])ccc2Oc2cc(C)cc(C)c2)CC1 (stereo not shown) [Example 4-17]
< 1	CCC(CC)N1CCN(S(=O)(=O)c2cc([N+](=O)[O-])ccc2Oc2cc(C)cc(C)c2)CC1 [Example 4-18]
< 1	Cc1cc(C)cc(Oc2ccc([N+](=O)[O-])cc2S(=O)(=O)N2CCN(C3CCCC3)CC2)c1 [Example 4-19]
< 1	CN(C)CCN(C)S(=O)(=O)c1cc([N+](=O)[O-])ccc1Oc1cc(Cl)cc(Cl)c1 [Example 4-20]
< 1	CCN(CC)C1CCN(S(=O)(=O)c2cc([N+](=O)[O-])ccc2Oc2cc(Cl)cc(Cl)c2)C1 (stereo not shown) [Example 4-21]
< 1	O=[N+]([O-])c1ccc(Oc2cc(Cl)cc(Cl)c2)c(S(=O)(=O)N2CCC[C@H]2CN2CCCC2)c1 [Example 4-22]
< 1	CN1CCC(N(C)S(=O)(=O)c2cc([N+](=O)[O-])ccc2Oc2cc(Cl)cc(Cl)c2)C1 (stereo not shown) [Example 4-23]
< 1	Cc1cc(C)cc(Oc2ccc([N+](=O)[O-])cc2S(=O)(=O)N2CCC(N(C)C)CC2)c1.Cl [Example 4-24]
< 1	Cc1cc(C)cc(Oc2ccc([N+](=O)[O-])cc2S(=O)(=O)N2CCN(CC3CCCO3)CC2)c1 (stereo not shown) [Example 4-26]
< 1	O=[N+]([O-])c1ccc(Oc2cc(Cl)cc(Cl)c2)c(S(=O)(=O)N2CCN(CC3CCCO3)CC2)c1 (stereo not shown) [Example 4-27]
< 1	O=[N+]([O-])c1ccc(Oc2cc(Cl)cc(Cl)c2)c(S(=O)(=O)N2CCC(N3CCCCC3)CC2)c1 [Example 4-29]
< 1	Cc1cc(C)cc(Oc2ccc([N+](=O)[O-])cc2S(=O)(=O)N2CCN(CCC(F)(F)F)CC2)c1 [Example 4-33]
< 1	O=[N+]([O-])c1ccc(Oc2cc(Cl)cc(Cl)c2)c(S(=O)(=O)N2CCN(CCC(F)(F)F)CC2)c1 [Example 4-34]
< 1	COCCCN1CCN(S(=O)(=O)c2cc([N+](=O)[O-])ccc2Oc2cc(Cl)cc(Cl)c2)CC1 [Example 4-36]
< 1	O=[N+]([O-])c1ccc(Oc2cc(Cl)cc(Cl)c2)c(S(=O)(=O)N2CCC(N3CCCC3)C2)c1 (stereo not shown) [Example 4-38]
> 10	Cc1cc(C)cc(Oc2ccc(N)cc2S(=O)(=O)N2CCNCC2)c1.O=C(O)C(F)(F)F [Example 5-3]

IC50 [µM]	SMILES
< 1	CCN1CCN(S(=O)(=O)c2cc(Cl)ccc2Oc2cc(C)cc(C)c2)CC1 [Example 5-4]
< 1	CCN1CCN(S(=O)(=O)c2cc(I)ccc2Oc2cc(C)cc(C)c2)CC1 [Example 5-5]
< 1	Cc1cc(C)cc(Oc2ccc(I)cc2S(=O)(=O)N2CCNCC2)c1.Cl [Example 5-6]
> 10	Cc1cc(C)cc(Oc2cc(C)c(N)cc2S(=O)(=O)N2CCNCC2)c1.Cl.Cl [Example 5-7]
< 1	Cc1cc(C)cc(Oc2ccc(F)cc2S(=O)(=O)N2CCNCC2)c1 [Example 6-3]
> 10	CC(=O)Nc1ccc(Oc2cc(C)cc(C)c2)c(S(=O)(=O)N2CCNCC2)c1 [Example 7-2]
> 10	Cc1cc(C)cc(Oc2ccc(NC(=O)C(C)(C)C)cc2S(=O)(=O)N2CCNCC2)c1 [Example 7-3]
> 10	Cc1cc(C)cc(Oc2ccc(NC(=O)CC(C)C)cc2S(=O)(=O)N2CCNCC2)c1 [Example 7-4]
> 10	Cc1cc(C)cc(Oc2ccc(NC(=O)c3ccccc3)cc2S(=O)(=O)N2CCNCC2)c1 [Example 7-5]
> 10	Cc1ccc(C(=O)Nc2ccc(Oc3cc(C)cc(C)c3)c(S(=O)(=O)N3CCNCC3)c2)cc1 [Example 7-6]
> 10	Cc1cc(C)cc(Oc2ccc(NC(=O)c3cccc4ccccc34)cc2S(=O)(=O)N2CCNCC2)c1 [Example 7-7]
> 10	Cc1cc(C)cc(Oc2ccc(NC(=O)CCc3ccccc3)cc2S(=O)(=O)N2CCNCC2)c1 [Example 7-8]
> 10	Cc1cc(C)cc(Oc2ccc(NC(=O)c3cccs3)cc2S(=O)(=O)N2CCNCC2)c1 [Example 7-9]
1 to 10	Cc1cc(C)cc(Oc2ccc(S(=O)(=O)N(C)C)cc2S(=O)(=O)N2CCNCC2)c1.Cl [Example 10-2]
1 to 10	N#Cc1ccc(Oc2cc(Cl)cc(Cl)c2)c(S(=O)(=O)N2CCCC3CN(Cc4ccccc4)CC32)c1 (stereo not shown) [Example 13-2]
< 1	N#Cc1ccc(Oc2cc(Cl)cc(Cl)c2)c(S(=O)(=O)N2C[C@H]3C[C@@H]2CN3)c1 [Example 13-4]
1 to 10	N#Cc1ccc(Oc2cc(Cl)cc(Cl)c2)c(S(=O)(=O)N2C[C@@H]3CCCN[C@@H]3C2)c1 [Example 13-5]
< 1	COCCCN1CCN(S(=O)(=O)c2cc(C#N)ccc2Oc2cc(Cl)cc(Cl)c2)CC1 [Example 13-7]

Reference: patent publication US8242118B2, “Arylsulfonamide derivatives for use as CCR3 antagonists in the treatment of inflammatory and immunological disorders” (Axikin Pharmaceuticals Inc., priority 2001, dated 2012)
